“Also recorded” adds a separate entry of the source. Where two headings read alike, the source gives them in different places.
Assays:
osteosarcoma cell lines = details: four canine osteosarcoma cell lines; cited from earlier work
[1] = system: human prostate cancer cell line; details: cited from earlier work
[2] = system: murine squamous cell carcinoma (SCC) tumor model; details: in vitro and in vivo; cited from earlier work
[3] = system: thyroid anaplastic carcinoma cell lines; details: four thyroid anaplastic carcinoma cell lines; cited from earlier work
[4] = system: involucrin in SCC 2/88 cells; assay: Cell differentiation: involucrin by SDS-PAGE and Western blot in SCC 2/88 cells; type: cell-based, canine; details: post-confluent cells, up to 7 days; for involucrin expression (anti-involucrin reactive bands) compared to vehicle: 10^−7 M; for involucrin expression (anti-involucrin reactive bands): 10^−9 M
Description: Cell differentiation. Involucrin was extracted from cultured SCC 2/88 cells grown in 175 cm2 culture flasks (Becton Dickinson, Franklin Lakes, N.J.) for one week. Post confluent cells were treated with either vehicle, 1,25(OH)2D3, EB 1089, or analog V at concentrations 10^−7 M and 10^−9 M for up to 7 days. Cells were washed and released from the culture flask with phosphate buffered saline containing 20 mM EDTA. Cells were disrupted with a Branson sonifier (Branson Ultrasonic Corporation, Danbury, Conn.) at a setting of 6 for 3×30 seconds and centrifuged at 100,000 G for 30 minutes at 10° C. The supernatant (cytosol) was made 10% in glycerol and 62.5 mM in Tris-HCl (pH 6.8) and heated for 10 minutes at 100° C. The denatured proteins were removed by centrifugation at 15,000 G for 15 minutes. Involucrin in the supernatant was collected stored at −70° C. until Western blot analysis was performed.
Extracted proteins (20 μg) were separated by electrophoresis through 7.5 % sodium dodecyl sulfate (SDS)-polyacrylamide gel, and transferred to nitrocellulose membrane with use of a semi-dry transferred technique (Bio-Rad laboratories, Hercules, Calif.). The membrane was then blocked in blocking solution (10% dry milk, 0.05% Tween 20 in phosphate buffered saline) overnight at 4° C. The preblocked membrane was incubated in mouse monoclonal antibody against involucrin (Research Diagnotics Inc., Flanders, N.J.) 1:500 for an hour and extensively washed in PBS (pH 7.4) containing 0.05% Tween 20. The blot was then incubated in goat anti-mouse IgG (horseradish peroxidase) (Bio-Rad laboratories, Hercules, Calif.) 1:500 for an hour. After further washing in phosphate buffered saline containing 0.05% Tween 20, the blot was developed for 1 minute in the LumiGLO Chemiluminescent substrate (Kirkegaard and Perry laboratories, Gaithersburg, Md.), and then exposed to x-ray film for 1–5 seconds. After exposure, the membrane was stripped and incubated with mouse monoclonal anti-β-actin (Sigma, Saint Louis, Mo.) to normalize for protein loading. AlphaImager™ Alpha Innotech Corporation, San Leandro) measured the density of involucrin bands.

[5] = system: PTHrP production in human squamous cell lines; details: cited from earlier work
[6] = system: PTHrP production in SCC 2/88 cells; details: Merryman et al 1993, cited from earlier work
[7] = system: human and rat liver cancer cell lines; details: cited from earlier work
[8] = system: TGF-β mRNA in SCC 2/88 cells; assay: Northern blot analysis of TGF-β mRNA expression in SCC 2/88 cells; type: cell-based, canine; details: 10^−7 M, 0, 3, 6, 12 and 24 hrs
SCC 2/88 cells = assay: Growth of SCC 2/88 cells by fluorescence DNA concentration analysis; type: cell-based, canine; details: three-day treatment
Excerpt: Cell culture. […] Each experiment was run in triplicate.

[9] = system: PTHrP mRNA in SCC 2/88 cells; assay: Northern blot analysis of PTHrP mRNA expression in SCC 2/88 cells; type: cell-based, canine

| Molecule | cell growth [3] | involucrin expression (anti-involucrin reactive bands) compared to vehicle [4] | involucrin expression (anti-involucrin reactive bands) [4] | PTHrP production in SCC 2/88 cells [6] | growth of SCC 2/88 cells (concentration of DNA) (SCC 2/88 cells; 10^−7 M) | growth of SCC 2/88 cells (concentration of DNA) (SCC 2/88 cells; 10^−9 M) | also measured |
| --- | --- | --- | --- | --- | --- | --- | --- |
| C=C1/C(=C\C=C2/CCC[C@]3(C)[C@@H]([C@H](C)CCCC(C)(C)O)CC[C@@H]23)C[C@@H](O)C[C@@H]1O [1,25(OH)2D3] | diphasic cell growth in three of the four cell lines | diminished involucrin expression | diminished involucrin expression | promote PTHrP production | inhibit cell proliferation; also recorded: significantly reduced the concentration of DNA | – | alkaline phosphatase activity (osteosarcoma cell lines): increases alkaline phosphatase activity in one cell line; osteocalcin production (osteosarcoma cell lines): osteocalcin production in two lines; type I collagen production (osteosarcoma cell lines): type I collagen production in three lines; cell growth and differentiation [1]: inhibits cell growth and promotes differentiation in a dose-dependent manner; antitumor effects [2]: significant antitumor effects; PTHrP production [5]: inhibits PTHrP production; PTHrP production in SCC 2/88 cells ([6]; listed as 1,25-(OH)2D3): stimulates production of parathyroid hormone-related protein; anti-proliferative activity [7]: anti-proliferative activity in some human and rat liver cancer cell lines; TGF-β mRNA expression compared to vehicle-treated control [8]: did not differ significantly |
| C=C1/C(=C\C=C2/CCC[C@]3(C)[C@@H]([C@H](C)OCCC(C)(C)O)CC[C@@H]23)C[C@@H](O)C[C@@H]1O [22-oxacalcitriol] | dose-dependent inhibition of cell growth in all four of the cell lines | – | – | – | – | – | – |
| C=C1/C(=C\C=C2/CCC[C@]3(C)[C@@H]([C@H](C)/C=C/C=C/C(O)(CC)CC)CC[C@@H]23)C[C@@H](O)C[C@@H]1O [EB 1089, 22,24-diene-24a,26a,27a-trihomo-1α,25-dihydroxyvitamin D3] | – | more weakly defined than that of the vehicle-treated control; also recorded: diminished involucrin expression; also recorded: weak or substantially absent anti-involucrin reactive bands | diminished involucrin expression; also recorded: diminished levels of involucrin | promote PTHrP production | inhibit cell proliferation; also recorded: significantly reduced the concentration of DNA; also recorded: significantly diminished cell growth | inhibits cell growth significantly; also recorded: significantly reduced the concentration of DNA; also recorded: reduced cell growth at a lower confidence level | – |
| C=C1C(=CC=C2CCCC3(C)C(C(C)CC#CC(C)(C)O)=CCC23)CC(O)CC1O (stereo not drawn) [analog V, 1,25-dihydroxy-16-ene-23-yne-vitamin D] | – | more weakly defined than that of the vehicle-treated control; also recorded: diminished involucrin expression; also recorded: weak or substantially absent anti-involucrin reactive bands | more intense than those of the other treated groups; also recorded: stronger anti-involucrin reactive band | promote PTHrP production | inhibit cell proliferation; also recorded: significantly reduced the concentration of DNA; also recorded: significantly diminished cell growth | no significant inhibition of cell growth | – |
| TGF-β | – | – | – | – | – | – | increase in PTHrP mRNA compared to vehicle-treated control ([9]; TGF-β 1.5 ng/mL, 6, 12 and 24 hr): 5- to 20 fold; increase in PTHrP mRNA compared with vehicle-treated control ([9]; TGF-β, after 24 hr): 2- to 20 fold |
